What was measured:
Format in all cases: cell-based, human
Donor 1 COP T-Cell Lines = test: IFN-γ ELISA, Donor 1 COP T-cell lines; conditions: for IFN-γ (ELISA), mean: 10 μg/mL, autologous B-LCL; for IFN-γ production in response to GA: 222-2D8, 222-2E1, 222-2B11, 222-2C3, 222-2B8, 222-2G12, 222-2F12
Protocol: Culture medium was removed from cultures prepared as for proliferation assay and utilized to measure cytokine production. In most cases culture medium was collected 18-24 hours after mixing T-cells, APC, and stimulating antigen. Cytokine production was measured by ELISA or bead assay. For measuring cytokine production, 100-150 μL culture medium (100 μL if culture was to be continued, otherwise 150 μL) was removed from each well. In some cases, the culture was continued 48 hours, for a total of 72 hours of culture, and the proliferative response measured.
IFN-γ concentration in culture supernatants was measured by a sandwich ELISA using two anti-IFN-γ monoclonal antibodies. Clone 2G1 was used for capture, and biotinylated antibody from clone B133.5 was used for detection (both from Endogen). Recombinant IFN-γ was used to construct a standard curve ranging from 1000 to 15 pg/mL.
Based on the increases in ATP level observed (i.e., a ratio of relative luminescence in wells with antigen to control wells without antigen of two or more), fifteen presumptive GA-specific T-cell lines in the original plate were moved to a 24-well plate at Day 26 and restimulated with 10 μg/mL Copaxone in the presence of autologous EBV-transformed B-LCL (5×10^5 per well, i.e., 2.5×10^5/mL). At Day 27 IL-2 was added. On Day 34, the fifteen presumptive lines were restimulated with 10 μg/mL GMA or 10 μg/mL COP in the presence of mitomycin-treated autologous B-LCL (4×10^4 per well; 2×10^5 per mL), or incubated with mitomycin-treated autologous B-LCL and no antigen. On Day 35 IL-2 was added to continued cultures. On Day 36 culture supernatant was collected from test cultures and IFN-γ production measured by ELISA (48 hours after restimulation). IFN-γ protein concentrations were determined using a TMB standard curve.

[1] = system: Donor 3 GMA Responsive T Cells; test: Cytokine multiplex assay, Donor 3 GMA responsive T cells; conditions: culture medium
Protocol: The concentration of multiple cytokines was measured simultaneously using FlowCytoMix™ kits (eBioscience, San Diego Calif.). These are fluorescent bead based assays consisting of beads conjugated to anti cytokine antibodies. Beads specific for each cytokine are distinguished by size and fluorescence at 670 run. Cytokine bound to each bead is detected using a phycoerythrin conjugated antibody so that the fluorescence at 585 nm reflects the concentration of cytokine in the sample. Two kits were utilized which measured different cytokine panels. The TH1/TH2 kit measures IFN-γ, IL-1β, IL-2, IL-4, IL-5, IL-6, IL-8, IL-10, IL-12p70, TNF-α (TNF) and TNF-β (LT). The TH1/TH2/TH9/TH17/TH22 kit measures […], IL-1β, IL-2, IL-4, IL-5, IL-6, IL-9, IL-10, IL-12p70, IL-13, IL-17, IL-22, and TNF-α (TNF). Both kits were used following the manufacturer's instructions.

GA-specific T-cell lines = conditions: concentrations approaching and exceeding 10 μg/mL; data not shown
Protocol: GA-specific T-cell lines from Donors 1 and 3 were tested for proliferation in response to stimulation with peptide GL 14, poly (Glu-Lys 1:4).

[2] = 222-1G8, 48 hours, T-cells + B-LCL >1000
[3] = 222-1H12, 48 hours, T-cells + B-LCL >1000
[4] = 222-2B8, 48 hours, T-cells + B-LCL 599
[5] = 222-2B11, 48 hours, T-cells + B-LCL 354
[6] = 222-2C3, 48 hours, T-cells + B-LCL 538
[7] = 222-2D8, 48 hours after restimulation, T-cells + B-LCL 270
[8] = 222-2E1, 48 hours, T-cells + B-LCL 457
[9] = 222-2F12, 48 hours, T-cells + B-LCL 295
[10] = 222-2G12, 48 hours, T-cells + B-LCL 515

Substance: glatiramer acetate [COP]
- IFN-γ (ELISA), mean (Donor 1 COP T-Cell Lines; 222-1C5, 48 hours, T-cells + B-LCL 821, listed as Copaxone): 700 pg/mL
- IFN-γ (ELISA), mean (Donor 1 COP T-Cell Lines; 222-1F8, 48 hours, T-cells + B-LCL 120, listed as Copaxone): 156 pg/mL
- IFN-γ (ELISA), mean (Donor 1 COP T-Cell Lines; [2]): >1000 pg/mL
- IFN-γ (ELISA), mean (Donor 1 COP T-Cell Lines; [3]): >1000 pg/mL
- IFN-γ (ELISA), mean (Donor 1 COP T-Cell Lines; [4]): >1000 pg/mL
- IFN-γ (ELISA), mean (Donor 1 COP T-Cell Lines; [5]): >1000 pg/mL
- IFN-γ (ELISA), mean (Donor 1 COP T-Cell Lines; 222-2C1, 48 hours, T-cells + B-LCL 369, listed as Copaxone): 417 pg/mL
- IFN-γ (ELISA), mean (Donor 1 COP T-Cell Lines; [6]): >1000 pg/mL
- IFN-γ (ELISA), mean (Donor 1 COP T-Cell Lines; 222-2C5, 48 hours, T-cells + B-LCL 325, listed as Copaxone): 273 pg/mL
- IFN-γ (ELISA), mean (Donor 1 COP T-Cell Lines; 222-2D2, 48 hours, T-cells + B-LCL 68, listed as Copaxone): 133 pg/mL
- IFN-γ production in response to GA (Donor 1 COP T-Cell Lines): reacted
- IFN-γ (ELISA), mean (Donor 1 COP T-Cell Lines; [7]): >1000 pg/mL
- IFN-γ (ELISA), mean (Donor 1 COP T-Cell Lines; [8]): >1000 pg/mL
- IFN-γ (ELISA), mean (Donor 1 COP T-Cell Lines; [9]): >1000 pg/mL
- IFN-γ (ELISA), mean (Donor 1 COP T-Cell Lines; 222-2G4, 48 hours, T-cells + B-LCL 280, listed as Copaxone): 416 pg/mL
- IFN-γ (ELISA), mean (Donor 1 COP T-Cell Lines; [10]): >1000 pg/mL
- IFN-γ ([1]; T-cell line 165-B5G): 190 pg/mL
- IL-4 ([1]; T-cell line 165-B5G): 17 pg/mL
- IL-5 ([1]; T-cell line 165-B5G): 374 pg/mL
- IL-13 ([1]; T-cell line 165-B5G): 2927 pg/mL
- IL-22 ([1]; T-cell line 165-B5G): 106 pg/mL
- IFN-γ ([1]; T-cell line 165-D8G): 115 pg/mL
- IL-4 ([1]; T-cell line 165-D8G): 14 pg/mL
- IL-5 ([1]; T-cell line 165-D8G): 309 pg/mL
- IL-13 ([1]; T-cell line 165-D8G): 3121 pg/mL
- IL-22 ([1]; T-cell line 165-D8G): 365 pg/mL
- IFN-γ ([1]; T-cell line 165-E9G): 638 pg/mL
- IL-4 ([1]; T-cell line 165-E9G): 12 pg/mL
- IL-5 ([1]; T-cell line 165-E9G): 208 pg/mL
- IL-13 ([1]; T-cell line 165-E9G): 1232 pg/mL
- IL-22 ([1]; T-cell line 165-E9G): 192 pg/mL
- IFN-γ ([1]; T-cell line 165-F8G): 771 pg/mL
- IL-4 ([1]; T-cell line 165-F8G): 0 pg/mL
- IL-5 ([1]; T-cell line 165-F8G): 297 pg/mL
- IL-13 ([1]; T-cell line 165-F8G): 1017 pg/mL
- IL-22 ([1]; T-cell line 165-F8G): 198 pg/mL
- IFN-γ ([1]; T-cell line 165-F10G): 1165 pg/mL
- IL-4 ([1]; T-cell line 165-F10G): 122 pg/mL
- IL-5 ([1]; T-cell line 165-F10G): 2586 pg/mL
- IL-13 ([1]; T-cell line 165-F10G): 11285 pg/mL
- IL-22 ([1]; T-cell line 165-F10G): 686 pg/mL
- IFN-γ ([1]; T-cell line 165-H11G): 724 pg/mL
- IL-4 ([1]; T-cell line 165-H11G): 9 pg/mL
- IL-5 ([1]; T-cell line 165-H11G): 321 pg/mL
- IL-13 ([1]; T-cell line 165-H11G): 1095 pg/mL
- IL-22 ([1]; T-cell line 165-H11G): 190 pg/mL

Substance: poly (Glu-Lys; 1:4) [GL 14]
- cell death (GA-specific T-cell lines): causes cell death

Substance: glatiramer acetate [GMA]
- IFN-γ (ELISA), mean (Donor 1 COP T-Cell Lines; 222-1C5, 48 hours, T-cells + B-LCL 821): 776 pg/mL
- IFN-γ (ELISA), mean (Donor 1 COP T-Cell Lines; 222-1F8, 48 hours, T-cells + B-LCL 120): 169 pg/mL
- IFN-γ (ELISA), mean (Donor 1 COP T-Cell Lines; [2]): >1000 pg/mL
- IFN-γ (ELISA), mean (Donor 1 COP T-Cell Lines; [3]): >1000 pg/mL
- IFN-γ (ELISA), mean (Donor 1 COP T-Cell Lines; [4]): >1000 pg/mL
- IFN-γ (ELISA), mean (Donor 1 COP T-Cell Lines; [5]): >1000 pg/mL
- IFN-γ (ELISA), mean (Donor 1 COP T-Cell Lines; 222-2C1, 48 hours, T-cells + B-LCL 369): 392 pg/mL
- IFN-γ (ELISA), mean (Donor 1 COP T-Cell Lines; [6]): >1000 pg/mL
- IFN-γ (ELISA), mean (Donor 1 COP T-Cell Lines; 222-2C5, 48 hours, T-cells + B-LCL 325): 245 pg/mL
- IFN-γ (ELISA), mean (Donor 1 COP T-Cell Lines; 222-2D2, 48 hours, T-cells + B-LCL 68): 131 pg/mL
- IFN-γ production in response to GA (Donor 1 COP T-Cell Lines): reacted
- IFN-γ (ELISA), mean (Donor 1 COP T-Cell Lines; [7]): >1000 pg/mL
- IFN-γ (ELISA), mean (Donor 1 COP T-Cell Lines; [8]): >1000 pg/mL
- IFN-γ (ELISA), mean (Donor 1 COP T-Cell Lines; [9]): >1000 pg/mL
- IFN-γ (ELISA), mean (Donor 1 COP T-Cell Lines; 222-2G4, 48 hours, T-cells + B-LCL 280): 438 pg/mL
- IFN-γ (ELISA), mean (Donor 1 COP T-Cell Lines; [10]): >1000 pg/mL
- IFN-γ ([1]; T-cell line 165-B5G): 201 pg/mL
- IL-4 ([1]; T-cell line 165-B5G): 47 pg/mL
- IL-5 ([1]; T-cell line 165-B5G): 399 pg/mL
- IL-13 ([1]; T-cell line 165-B5G): 2930 pg/mL
- IL-22 ([1]; T-cell line 165-B5G): 248 pg/mL
- IFN-γ ([1]; T-cell line 165-D8G): 121 pg/mL
- IL-4 ([1]; T-cell line 165-D8G): 12 pg/mL
- IL-5 ([1]; T-cell line 165-D8G): 309 pg/mL
- IL-13 ([1]; T-cell line 165-D8G): 3326 pg/mL
- IL-22 ([1]; T-cell line 165-D8G): 405 pg/mL
- IFN-γ ([1]; T-cell line 165-E9G): 837 pg/mL
- IL-4 ([1]; T-cell line 165-E9G): 6 pg/mL
- IL-5 ([1]; T-cell line 165-E9G): 236 pg/mL
- IL-13 ([1]; T-cell line 165-E9G): 1499 pg/mL
- IL-22 ([1]; T-cell line 165-E9G): 245 pg/mL
- IFN-γ ([1]; T-cell line 165-F8G): 889 pg/mL
- IL-4 ([1]; T-cell line 165-F8G): 5 pg/mL
- IL-5 ([1]; T-cell line 165-F8G): 370 pg/mL
- IL-13 ([1]; T-cell line 165-F8G): 1193 pg/mL
- IL-22 ([1]; T-cell line 165-F8G): 197 pg/mL
- IFN-γ ([1]; T-cell line 165-F10G): 1108 pg/mL
- IL-4 ([1]; T-cell line 165-F10G): 114 pg/mL
- IL-5 ([1]; T-cell line 165-F10G): 2589 pg/mL
- IL-13 ([1]; T-cell line 165-F10G): 10897 pg/mL
- IL-22 ([1]; T-cell line 165-F10G): 680 pg/mL
- IFN-γ ([1]; T-cell line 165-H11G): 724 pg/mL
- IL-4 ([1]; T-cell line 165-H11G): 7 pg/mL
- IL-5 ([1]; T-cell line 165-H11G): 320 pg/mL
- IL-13 ([1]; T-cell line 165-H11G): 1058 pg/mL
- IL-22 ([1]; T-cell line 165-H11G): 201 pg/mL
